Results reported in US20100267561A1, “HERBICIDAL PYRIDAZINONE DERIVATIVES” (priority 2007, published 2010).

Assays:
Assay in all cases: Test B pre-/postemergence plant response
Assay type in all cases: in vivo
[1] = test system: Italian ryegrass (Lolium multiflorum); conditions: for Ryegrass, Italian plant response rating: 8 g ai/ha
Procedure, shortened: (§1)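 Visual scoring from 0 (no effect) to 100 (complete control) against untreated controls was done 13 to 15 days after greenhouse treatment. Chemicals were formulated in a surfactant-containing non-phytotoxic solvent and applied to soil preemergence or to 1- to 4-leaf (2-18 cm) plants postemergence.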

[2] = test system: Russian thistle (Salsola iberica); conditions: Preemergence
Procedure, shortened: as §1

[3] = test system: bermudagrass (Cynodon dactylon); conditions: for Bermudagrass plant response rating: 8 g ai/ha
Procedure, shortened: as §1

corn (Zea mays) = conditions: for Corn plant response rating: 8 g ai/ha
Procedure, shortened: as §1

[4] = test system: downy bromegrass (Bromus tectorum); conditions: for Bromegrass, Downy plant response rating: 8 g ai/ha
Procedure, shortened: as §1

[5] = test system: eastern black (E.B.) nightshade (Solanum ptycanthum); conditions: Preemergence
Procedure, shortened: as §1

[6] = test system: green foxtail (Setaria viridis); conditions: for Foxtail, Green plant response rating: 8 g ai/ha
Procedure, shortened: as §1

kochia (Kochia scoparia) = conditions: for Kochia plant response rating: 8 g ai/ha
Procedure, shortened: as §1

[7] = test system: morningglory (Ipomoea coccinea); conditions: for Morningglory plant response rating: 8 g ai/ha
Procedure, shortened: as §1

[8] = test system: pigweed (Amaranthus retroflexus); conditions: for Pigweed plant response rating: 8 g ai/ha
Procedure, shortened: as §1

soybean (Glycine max) = conditions: for Soybean plant response rating: 8 g ai/ha
Procedure, shortened: as §1

[9] = test system: surinam grass (Brachiaria decumbens); conditions: for Surinam Grass plant response rating: 8 g ai/ha
Procedure, shortened: as §1

[10] = test system: velvetleaf (Abutilon theophrasti); conditions: for Velvetleaf plant response rating: 8 g ai/ha
Procedure, shortened: as §1

[11] = test system: woolly cupgrass (Eriochloa villosa); conditions: for Cupgrass, Woolly plant response rating: 8 g ai/ha
Procedure, shortened: as §1

[12] = Postemergence, 16 g ai/ha, scale 0 to 100
[13] = Postemergence, 31 g ai/ha, scale 0 to 100, 0 no effect, 100 complete control
[14] = Postemergence, 62 g ai/ha, scale 0 to 100
[15] = Preemergence, 16 g ai/ha, scale 0 to 100 (0 no effect, 100 complete control)
[16] = Preemergence, 31 g ai/ha, 0 to 100 scale, 0 no effect, 100 complete control
[17] = Preemergence, 62 g ai/ha, scale 0 to 100
[18] = 16 g ai/ha, scale 0 to 100 (0 no effect, 100 complete control)
[19] = 31 g ai/ha, 0 to 100 scale, 0 no effect, 100 complete control

SMILES: CCc1cc(-c2ccc(F)cc2)nn1-c1c(O)cnn(C)c1=O [Compound 25]
- Ryegrass, Italian plant response rating ([1]; postemergence, 0-100 scale): 60
- Plant response rating, Ryegrass, Italian [1, 12]: 80
- Plant response rating, Ryegrass, Italian [1, 13]: 85
- Plant response rating, Ryegrass, Italian [1, 14]: 95
- Plant response rating, Ryegrass, Italian [1, 15]: 50
- Plant response rating, Ryegrass, Italian [1, 16]: 90
- Plant response rating, Ryegrass, Italian [1, 17]: 100
- Ryegrass, Italian plant response rating ([1]; Preemergence, scale 0 to 100): 50
- Plant response rating, Russian Thistle [2, 18]: 0
- Plant response rating, Russian Thistle [2, 19]: 0
- Plant response rating, Russian Thistle ([2]; 62 g ai/ha, scale 0 to 100): 0
- Russian Thistle plant response rating ([2]; 8 g ai/ha, scale 0 to 100): 0
- Bermudagrass plant response rating ([3]; postemergence, 0-100 scale): 0
- Plant response rating, Bermudagrass [3, 12]: 0
- Plant response rating, Bermudagrass [3, 13]: 60
- Plant response rating, Bermudagrass [3, 14]: 60
- Bermudagrass plant response rating ([3]; Preemergence, scale 0 to 100 (0 no effect, 100 complete control)): 0
- Plant response rating, Bermudagrass [3, 15]: 70
- Plant response rating, Bermudagrass [3, 16]: 80
- Plant response rating, Bermudagrass [3, 17]: 100
- Corn plant response rating (corn (Zea mays); postemergence, 0-100 scale): 0
- Plant response rating, Corn (corn (Zea mays); [12]): 50
- Plant response rating, Corn (corn (Zea mays); [13]): 95
- Plant response rating, Corn (corn (Zea mays); [15]): 5
- Plant response rating, Corn (corn (Zea mays); [16]): 50
- Plant response rating, Corn (corn (Zea mays); [17]): 75
- Corn plant response rating (corn (Zea mays); Preemergence, scale 0 to 100): 0
- Bromegrass, Downy plant response rating ([4]; postemergence, 0-100 scale): 0
- Plant response rating, Bromegrass, Downy [4, 12]: 0
- Plant response rating, Bromegrass, Downy [4, 13]: 10
- Plant response rating, Bromegrass, Downy [4, 14]: 15
- Plant response rating, Bromegrass, Downy [4, 15]: 0
- Plant response rating, Bromegrass, Downy [4, 16]: 0
- Plant response rating, Bromegrass, Downy [4, 17]: 0
- Bromegrass, Downy plant response rating ([4]; Preemergence, scale 0 to 100): 0
- Plant response rating, Nightshade, E. B. [5, 18]: 0
- Plant response rating, Nightshade, E. B. [5, 19]: 0
- Plant response rating, Nightshade, E. B. ([5]; 62 g ai/ha, scale 0 to 100): 0
- Nightshade, E. B. plant response rating ([5]; 8 g ai/ha, scale 0 to 100): 0
- Foxtail, Green plant response rating ([6]; postemergence, 0-100 scale): 55
- Plant response rating, Foxtail, Green [6, 12]: 70
- Plant response rating, Foxtail, Green [6, 13]: 80
- Plant response rating, Foxtail, Green [6, 14]: 98
- Plant response rating, Foxtail, Green [6, 15]: 98
- Plant response rating, Foxtail, Green [6, 16]: 98
- Plant response rating, Foxtail, Green [6, 17]: 98
- Foxtail, Green plant response rating ([6]; Preemergence, scale 0 to 100): 50
- Kochia plant response rating (kochia (Kochia scoparia); postemergence, 0-100 scale): 0
- Plant response rating, Kochia (kochia (Kochia scoparia); [12]): 0
- Plant response rating, Kochia (kochia (Kochia scoparia); [13]): 0
- Plant response rating, Kochia (kochia (Kochia scoparia); [14]): 0
- Plant response rating, Kochia (kochia (Kochia scoparia); [15]): 0
- Plant response rating, Kochia (kochia (Kochia scoparia); [17]): 50
- Kochia plant response rating (kochia (Kochia scoparia); Preemergence, scale 0 to 100): 0
- Morningglory plant response rating ([7]; postemergence, 0-100 scale): 0
- Plant response rating, Morningglory [7, 12]: 0
- Plant response rating, Morningglory [7, 13]: 0
- Plant response rating, Morningglory [7, 14]: 20
- Plant response rating, Morningglory [7, 15]: 0
- Plant response rating, Morningglory [7, 16]: 0
- Plant response rating, Morningglory [7, 17]: 0
- Morningglory plant response rating ([7]; Preemergence, scale 0 to 100): 0
- Pigweed plant response rating ([8]; postemergence, 0-100 scale): 0
- Plant response rating, Pigweed [8, 12]: 0
- Plant response rating, Pigweed [8, 13]: 0
- Plant response rating, Pigweed [8, 14]: 10
- Plant response rating, Pigweed [8, 15]: 0
- Plant response rating, Pigweed [8, 16]: 0
- Plant response rating, Pigweed [8, 17]: 80
- Pigweed plant response rating ([8]; Preemergence, scale 0 to 100): 0
- Soybean plant response rating (soybean (Glycine max); postemergence, 0-100 scale): 0
- Plant response rating, Soybean (soybean (Glycine max); [12]): 0
- Plant response rating, Soybean (soybean (Glycine max); [13]): 0
- Plant response rating, Soybean (soybean (Glycine max); [14]): 0
- Plant response rating, Soybean (soybean (Glycine max); [15]): 0
- Plant response rating, Soybean (soybean (Glycine max); [16]): 0
- Plant response rating, Soybean (soybean (Glycine max); [17]): 0
- Soybean plant response rating (soybean (Glycine max); Preemergence, scale 0 to 100): 0
- Surinam Grass plant response rating ([9]; postemergence, 0-100 scale): 50
- Plant response rating, Surinam Grass [9, 12]: 60
- Plant response rating, Surinam Grass [9, 13]: 95
- Plant response rating, Surinam Grass [9, 14]: 100
- Plant response rating, Surinam Grass [9, 15]: 85
- Plant response rating, Surinam Grass [9, 16]: 85
- Plant response rating, Surinam Grass [9, 17]: 100
- Surinam Grass plant response rating ([9]; Preemergence, scale 0 to 100): 50
- Velvetleaf plant response rating ([10]; postemergence, 0-100 scale): 0
- Plant response rating, Velvetleaf [10, 12]: 0
- Plant response rating, Velvetleaf [10, 13]: 0
- Plant response rating, Velvetleaf [10, 14]: 0
- Plant response rating, Velvetleaf [10, 15]: 0
- Plant response rating, Velvetleaf [10, 16]: 0
- Plant response rating, Velvetleaf [10, 17]: 0
- Velvetleaf plant response rating ([10]; Preemergence, scale 0 to 100): 0
- Cupgrass, Woolly plant response rating ([11]; postemergence, 0-100 scale): 60
- Plant response rating, Cupgrass, Woolly [11, 12]: 80
- Plant response rating, Cupgrass, Woolly [11, 13]: 85
- Plant response rating, Cupgrass, Woolly [11, 14]: 100
- Plant response rating, Cupgrass, Woolly [11, 15]: 40
- Plant response rating, Cupgrass, Woolly [11, 16]: 80
- Plant response rating, Cupgrass, Woolly [11, 17]: 80
- Cupgrass, Woolly plant response rating ([11]; Preemergence, scale 0 to 100): 0
